Data taken from PMC6100082, “Pyridine-Ureas as Potential Anticancer Agents: Synthesis and In Vitro Biological Evaluation” (Molecules : A Journal of Synthetic Chemistry and Natural …, 2018).

Experiments:
Assay type in all cases: cell-based, human
A549/ATCC = test: NCI one-dose SRB assay (Non-Small Cell Lung Cancer); conditions: for Growth Percent: 1.00E-5 Molar; for inhibition at 10 µM: Homo sapiens, read-out: Percentage growth inhibition (GI%)
Description: (§1) The structures of all the newly prepared pyridine-ureas 8a–n were submitted to the National Cancer Institute (NCI) Developmental Therapeutic Program. Eight compounds 8b, 8d, 8e, 8i, 8j and 8l–n were selected to be examined for their in vitro growth inhibitory activity. The anticancer assays were carried out according to the protocol of the Drug Evaluation Branch, NCI, Bethesda. The selected pyridine-ureas were tested at one dose primary anticancer assay against a panel of approximately 58 cancer lines (concentration 10^−5 M). The tested human cancer cell lines emerged from nine different cancer subtypes: leukemia, colon, melanoma, ovarian, lung, CNS, renal, breast and prostate cancers. The sulforhodamine B (SRB) protein assay was adopted to estimate the cell viability and growth. The results were reported as mean-graph of the percentage growth of the treated cells, and presented as percentage growth inhibition (GI%) caused by the test compounds (Table 2).
(§2) The anticancer assays were performed in accordance with the protocol of the Drug Evaluation Branch, NCI, Bethesda. A 48 h drug exposure protocol was used and sulforhodamine B (SRB) protein assay was applied to estimate the cell viability and growth, as reported earlier.

EKVX = test: as above; conditions: for Growth Percent: 1.00E-5 Molar; for inhibition at 10 µM: Homo sapiens, read-out: Percentage growth inhibition (GI%)
Description: as §1, §2

HOP-62 = test: as above; conditions: for Growth Percent: HOP-62, 1.00E-5 Molar; for inhibition at 10 µM: Homo sapiens, HOP-62, 10 μM, read-out: Percentage growth inhibition (GI%)
Description: as §1, §2

HOP-92 = test: as above; conditions: for Growth Percent: HOP-92, 1.00E-5 Molar; for inhibition at 10 µM: Homo sapiens, HOP-92, 10 μM, read-out: Percentage growth inhibition (GI%)
Description: as §1, §2

NCI-H226 = test: as above; conditions: for inhibition at 10 µM: Homo sapiens, NCI-H226, 10 μM, read-out: Percentage growth inhibition (GI%); for Growth Percent: NCI-H226, 1.00E-5 Molar
Description: as §1, §2

NCI-H23 = test: as above; conditions: for inhibition at 10 µM: Homo sapiens, NCI-H23, 10 μM, read-out: Percentage growth inhibition (GI%); for Growth Percent: NCI-H23, 1.00E-5 Molar
Description: as §1, §2

NCI-H322M = test: as above; conditions: for Growth Percent: 1.00E-5 Molar; for inhibition at 10 µM: Homo sapiens, read-out: Percentage growth inhibition (GI%)
Description: as §1, §2

NCI-H460 = test: as above; conditions: for inhibition at 10 µM: Homo sapiens, NCI-H460, 10 μM, read-out: Percentage growth inhibition (GI%); for Growth Percent: NCI-H460, 1.00E-5 Molar
Description: as §1, §2

NCI-H522 = test: as above; conditions: for inhibition at 10 µM: Homo sapiens, NCI-H522, 10 μM, read-out: Percentage growth inhibition (GI%); for Growth Percent: NCI-H522, 1.00E-5 Molar
Description: as §1, §2

IGROV1 = test: NCI one-dose SRB assay (Ovarian Cancer); conditions: for inhibition at 10 µM: Homo sapiens, IGROV-1, IGROV1, 10 μM, read-out: Percentage growth inhibition (GI%); for Growth Percent: IGROV1, 1.00E-5 Molar
Description: as §1, §2

NCI/ADR-RES = test: NCI one-dose SRB assay (Ovarian Cancer); conditions: for Growth Percent: 1.00E-5 Molar; for inhibition at 10 µM: Homo sapiens, read-out: Percentage growth inhibition (GI%)
Description: as §1, §2

OVCAR-3 = test: NCI one-dose SRB assay (Ovarian Cancer); conditions: for inhibition at 10 µM: Homo sapiens, OVCAR-3, 10 μM, read-out: Percentage growth inhibition (GI%); for Growth Percent: OVCAR-3, 1.00E-5 Molar
Description: as §1, §2

OVCAR-4 = test: NCI one-dose SRB assay (Ovarian Cancer); conditions: for inhibition at 10 µM: Homo sapiens, OVCAR-4, 10 μM, read-out: Percentage growth inhibition (GI%); for Growth Percent: OVCAR-4, 1.00E-5 Molar
Description: as §1, §2

OVCAR-5 = test: NCI one-dose SRB assay (Ovarian Cancer); conditions: for inhibition at 10 µM: Homo sapiens, OVCAR-5, 10 μM, read-out: Percentage growth inhibition (GI%); for Growth Percent: OVCAR-5, 1.00E-5 Molar
Description: as §1, §2

OVCAR-8 = test: NCI one-dose SRB assay (Ovarian Cancer); conditions: for inhibition at 10 µM: Homo sapiens, OVCAR-8, 10 μM, read-out: Percentage growth inhibition (GI%); for Growth Percent: OVCAR-8, 1.00E-5 Molar
Description: as §1, §2

SK-OV-3 = test: NCI one-dose SRB assay (Ovarian Cancer); conditions: for inhibition at 10 µM: Homo sapiens, SK-OV-3, 10 μM, read-out: Percentage growth inhibition (GI%); for Growth Percent: SK-OV-3, 1.00E-5 Molar
Description: as §1, §2

786-0 = test: NCI one-dose SRB assay (Renal Cancer); conditions: for Growth Percent: 786-0, 1.00E-5 Molar; for inhibition at 10 µM: Homo sapiens, 786-0, 10 μM, read-out: Percentage growth inhibition (GI%)
Description: as §1, §2

A498 = test: NCI one-dose SRB assay (Renal Cancer); conditions: for Growth Percent: A498, 1.00E-5 Molar; for inhibition at 10 µM: Homo sapiens, A498, 10 μM, read-out: Percentage growth inhibition (GI%)
Description: as §1, §2

RXF 393 = test: NCI one-dose SRB assay (Renal Cancer); conditions: for inhibition at 10 µM: Homo sapiens, RXF 393, 10 μM, read-out: Percentage growth inhibition (GI%); for Growth Percent: RXF 393, 1.00E-5 Molar
Description: as §1, §2

SN12C = test: NCI one-dose SRB assay (Renal Cancer); conditions: for Growth Percent: 1.00E-5 Molar; for inhibition at 10 µM: Homo sapiens, read-out: Percentage growth inhibition (GI%)
Description: as §1, §2

TK-10 = test: NCI one-dose SRB assay (Renal Cancer); conditions: for inhibition at 10 µM: Homo sapiens, TK-10, 10 μM, read-out: Percentage growth inhibition (GI%); for Growth Percent: TK-10, 1.00E-5 Molar
Description: as §1, §2

UO-31 = test: NCI one-dose SRB assay (Renal Cancer); conditions: for inhibition at 10 µM: Homo sapiens, UO-31, 10 μM, read-out: Percentage growth inhibition (GI%); for Growth Percent: UO-31, 1.00E-5 Molar
Description: as §1, §2

BT-549 = test: NCI one-dose SRB assay (Breast Cancer); conditions: for Growth Percent: BT-549, 1.00E-5 Molar; for inhibition at 10 µM: Homo sapiens, BT-549, 10 μM, read-out: Percentage growth inhibition (GI%)
Description: as §1, §2

HS 578T = test: NCI one-dose SRB assay (Breast Cancer); conditions: for Growth Percent: 1.00E-5 Molar; for inhibition at 10 µM: Homo sapiens, read-out: Percentage growth inhibition (GI%)
Description: as §1, §2

MCF7 = test: NCI one-dose SRB assay (Breast Cancer); conditions: for inhibition at 10 µM: Homo sapiens, MCF7, 10 μM, read-out: Percentage growth inhibition (GI%); for Growth Percent: MCF7, 1.00E-5 Molar
Description: as §1, §2

MDA-MB-231 = test: NCI one-dose SRB assay (Breast Cancer); conditions: for inhibition at 10 µM: Homo sapiens, MDA-MB-231, 10 μM, read-out: Percentage growth inhibition (GI%); for Growth Percent: MDA-MB-231/ATCC, 1.00E-5 Molar
Description: as §1, §2

MDA-MB-468 = test: NCI one-dose SRB assay (Breast Cancer); conditions: for inhibition at 10 µM: Homo sapiens, MDA-MB-468, 10 μM, read-out: Percentage growth inhibition (GI%); for Growth Percent: MDA-MB-468, 1.00E-5 Molar
Description: as §1, §2

T-47D = test: NCI one-dose SRB assay (Breast Cancer); conditions: for Growth Percent: 1.00E-5 Molar; for inhibition at 10 µM: Homo sapiens, T47D, read-out: Percentage growth inhibition (GI%)
Description: as §1, §2

## COc1ccc(-c2ccc(NC(=O)Nc3cccc(C(F)(F)F)c3)c(C)n2)cc1 [Compound 8b, 1-(6-(4-Methoxyphenyl)-2-methylpyridin-3-yl)-3-(3-(trifluoromethyl)phenyl) Urea]
A549/ATCC
  Growth Percent: 42.47%
  inhibition at 10 µM: 58%
EKVX
  Growth Percent: 41.42%
  inhibition at 10 µM: 59%
HOP-62
  Growth Percent: 67.99%
  inhibition at 10 µM: 33%
HOP-92
  Growth Percent: 68.79%
  inhibition at 10 µM: 32%
NCI-H226
  inhibition at 10 µM: 42%
  Growth Percent: 58.09%
NCI-H23
  inhibition at 10 µM: 53%
  Growth Percent: 47.63%
NCI-H322M
  Growth Percent: 64.44%
  inhibition at 10 µM: 36%
NCI-H460
  inhibition at 10 µM: 52%
  Growth Percent: 48.67%
NCI-H522
  inhibition at 10 µM: 72%
  Growth Percent: 28.48%
IGROV1
  inhibition at 10 µM: < 10%
  Growth Percent: 91.33%
NCI/ADR-RES
  Growth Percent: 53.15%
  inhibition at 10 µM: 47%
OVCAR-3
  inhibition at 10 µM: 59%
  Growth Percent: 41.93%
OVCAR-4
  inhibition at 10 µM: 58%
  Growth Percent: 42.94%
OVCAR-5
  inhibition at 10 µM: 17%
  Growth Percent: 83.05%
OVCAR-8
  inhibition at 10 µM: 39%
  Growth Percent: 61.89%
SK-OV-3
  inhibition at 10 µM: 18%
  Growth Percent: 82.08%
786-0
  Growth Percent: 77.34%
  inhibition at 10 µM: 23%
A498
  Growth Percent: 52.08%
  inhibition at 10 µM: 48%
RXF 393
  inhibition at 10 µM: 15%
  Growth Percent: 85.91%
SN12C
  Growth Percent: 67.99%
  inhibition at 10 µM: 33%
TK-10
  inhibition at 10 µM: 24%
  Growth Percent: 76.66%
UO-31
  inhibition at 10 µM: 45%
  Growth Percent: 55.08%
BT-549
  Growth Percent: 66.40%
  inhibition at 10 µM: 34%
HS 578T
  Growth Percent: 88.85%
  inhibition at 10 µM: 12%
MCF7
  inhibition at 10 µM: 59%
  Growth Percent: 41.47%
MDA-MB-231
  inhibition at 10 µM: 32%
  Growth Percent: 68.55%
MDA-MB-468
  inhibition at 10 µM: 73%
  Growth Percent: 27.53%
T-47D
  Growth Percent: 26.51%
  inhibition at 10 µM: 74%

## COc1ccc(-c2ccc(NC(=O)Nc3ccc(Cl)cc3)c(C)n2)cc1 [Compound 8d, 1-(4-Chlorophenyl)-3-(6-(4-methoxyphenyl)-2-methylpyridin-3-yl) Urea]
A549/ATCC
  Growth Percent: 68.26%
  inhibition at 10 µM: 32%
EKVX
  Growth Percent: 92.90%
  inhibition at 10 µM: < 10%
HOP-62
  Growth Percent: 81.25%
  inhibition at 10 µM: 19%
HOP-92
  Growth Percent: 81.02%
  inhibition at 10 µM: 19%
NCI-H226
  inhibition at 10 µM: < 10%
  Growth Percent: 97.81%
NCI-H23
  inhibition at 10 µM: < 10%
  Growth Percent: 94.08%
NCI-H322M
  Growth Percent: 65.27%
  inhibition at 10 µM: 35%
NCI-H460
  inhibition at 10 µM: 36%
  Growth Percent: 64.55%
NCI-H522
  inhibition at 10 µM: 33%
  Growth Percent: 67.47%
IGROV1
  inhibition at 10 µM: 17%
  Growth Percent: 83.85%
NCI/ADR-RES
  Growth Percent: 92.03%
  inhibition at 10 µM: < 10%
OVCAR-3
  inhibition at 10 µM: < 10%
  Growth Percent: 101.66%
OVCAR-4
  inhibition at 10 µM: 26%
  Growth Percent: 74.67%
OVCAR-5
  inhibition at 10 µM: < 10%
  Growth Percent: 93.01%
OVCAR-8
  inhibition at 10 µM: < 10%
  Growth Percent: 93.26%
SK-OV-3
  inhibition at 10 µM: 18%
  Growth Percent: 82.66%
786-0
  Growth Percent: 90.10%
  inhibition at 10 µM: 10%
A498
  Growth Percent: 79.24%
  inhibition at 10 µM: 21%
RXF 393
  inhibition at 10 µM: < 10%
  Growth Percent: 98.51%
SN12C
  Growth Percent: 98.33%
  inhibition at 10 µM: < 10%
TK-10
  inhibition at 10 µM: < 10%
  Growth Percent: 102.41%
UO-31
  inhibition at 10 µM: 11%
  Growth Percent: 89.14%
BT-549
  Growth Percent: 96.71%
  inhibition at 10 µM: < 10%
HS 578T
  Growth Percent: 98.36%
  inhibition at 10 µM: < 10%
MCF7
  inhibition at 10 µM: 26%
  Growth Percent: 74.74%
MDA-MB-231
  inhibition at 10 µM: < 10%
  Growth Percent: 97.34%
MDA-MB-468
  inhibition at 10 µM: < 10%
  Growth Percent: 91.54%
T-47D
  Growth Percent: 72.90%
  inhibition at 10 µM: 28%
